One test has as its target T1, human FXR alpha (NR1H4) (Homo sapiens, UniProt Q96RI1).
T1 construct: human FXR alpha (NR1H4—(Acc. No:AF384555)) encoding amino acids 187–472; made in house; host or cells: E. coli BL21
T1 sequence (Q96RI1 187-472 isoform Q96RI1-2): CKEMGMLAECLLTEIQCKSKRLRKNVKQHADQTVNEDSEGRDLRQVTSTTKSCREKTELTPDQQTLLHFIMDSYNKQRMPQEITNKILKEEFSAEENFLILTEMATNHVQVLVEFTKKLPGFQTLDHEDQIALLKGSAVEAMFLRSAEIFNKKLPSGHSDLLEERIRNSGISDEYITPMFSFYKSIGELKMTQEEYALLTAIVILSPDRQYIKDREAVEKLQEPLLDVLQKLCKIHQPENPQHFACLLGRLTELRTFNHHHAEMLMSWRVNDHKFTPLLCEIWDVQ
T1 sequence (Q15596 548-878 partner limits assumed): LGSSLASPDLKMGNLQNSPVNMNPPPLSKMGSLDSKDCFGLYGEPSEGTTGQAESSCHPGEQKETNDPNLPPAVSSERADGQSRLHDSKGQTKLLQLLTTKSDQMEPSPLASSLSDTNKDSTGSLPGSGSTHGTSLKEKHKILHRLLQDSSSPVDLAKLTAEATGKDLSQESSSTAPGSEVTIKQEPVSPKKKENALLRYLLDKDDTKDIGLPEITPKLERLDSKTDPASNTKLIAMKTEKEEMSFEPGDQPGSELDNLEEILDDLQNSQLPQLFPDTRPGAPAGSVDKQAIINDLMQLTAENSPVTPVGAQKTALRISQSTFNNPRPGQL
The experiment in a line: In vitro screening for FXR binding to coactivator TIF2 (LANCE TR-FRET). It is filed as biochemical. An excerpt: For screening purposes a fragment of the open reading frame of human FXR alpha (NR1H4—(Acc. No:AF384555)) encoding amino acids 187–472 was amplified by standard RT PCR procedures (see FIGS. 2A and 2B; SEQ ID NO. 1 and 2). Starting material was total RNA derived from human liver. The resulting cDNA obtained after reverse transcription was subsequently cloned using the Gateway™ recombination technology (Invitrogen, USA) into the expression plasmid pDest15 (Invitrogen, USA). This construct was used to express a recombinant GST-FXR fusion protein in E.coli (BL21 strain). A pDEST 17 derivative clone harboring an additional sequence encoding amino acids 548–878 of human TIF2 (Acc. No: XM—011633 RefSeq) (see FIGS. 2C and 2D, SEQ ID NO. 3 and 4) was constructed using Gateway™ recombination technology (Invitrogen, USA) in order to obtain a construct which was used to express recombinant His-tagged TIF2 fragment could be expressed in E. coli. For E. coli expression of both constructs, plasmid DNA was transformed into chemically competent E. coli BL21 (Invitrogen, USA) and cells were grown to an OD600 of 0.4–0.7 before expression was induced by addition of 0.5 mM IPTG according instructions of the manufacturer (Invitrogen). After induction for 8 hours at 30° C. cells were harvested by centrifugation for 10 minutes at 5000×g. Fusion proteins were affinity purified using Glutathion sepharose (Pharmacia) or Ni-NTA Agarose (QIAGEN) according to the instructions of the respective manufacturer. Recombinant proteins were dialyzed against 20 mM Tris/HCL pH 7.9; 60 mM KCl; 5 mM MgCl2; 1 mM DTT, 0.2 mM PMSF; and 10% glycerol. The TIF2 fragment was subsequently biotinylated by addition of 40–120 μl of a biotinamidocaproate N-hydroxysuccinimide-ester (Sigma) solution (20 mg/ml in DMSO). Overhead rotating samples were incubated for two hours at room temperature. Unincorporated label was then separated using G25 Gel filtration chromatography (Pharmacia Biotech, Sweden). Protein containing fractions from the column were pooled and tested for activity in the assay as described below.
For screening of compound libraries as provided for by the methods shown below in the examples for substances which influence the FXR/Tif 2 interaction, the Perkin Elmer LANCE technology was applied. This method relies on the binding dependent energy transfer from a donor to an acceptor fluorophore attached to the binding partners of interest. For ease of handling and reduction of background from compound fluorescence LANCE technology makes use of generic fluorophore labels and time resolved detection (for detailed description See Hemmilä I, Blomberg K and Hurskainen P, Time-resolved resonance energy transfer (TR-FRET) principle in LANCE, Abstract of Papers Presented at the 3rd Annual Conference of the Society for Biomolecular Screening, Sep., California (1997)).
For screening, 20–200 ng of biotinylated Tif 2 fragment and 10–200 ng of GST-FXR fragment were combined with 0.5–2 nM LANCE Eu-(W1024) labeled anti-GST antibody (Perkin Elmer) and 0.5–2 μg of Highly fluorescent APC-labeled streptavidin (Perkin Elmer) in the presence of 50 μM of individual compounds to be screened in a total volume of 25 μl of 20 mM Tris/HCl pH 7.9; 60 mM KCl; 5 mM MgCl2; and 160 ng/μl BSA. DMSO content of the samples was kept below 4%. Samples were incubated for a minimum of 60 minutes in the dark at room temperature in FIA-Plates black 384well med. binding (Greiner).
The LANCE signal was detected by a Perkin Elmer VICTOR2V™ Multilabel Counter applying the detection parameters listed in Table 3, below. The results were visualized by plotting the ratio between the emitted light at 665 nm and at 615 nm. For every batch of recombinant proteins amount of proteins and labeling reagents giving the most sensitive detection of hits was determined individually by analysis of dose response curves for chenodeoxycholic acid.
A general note: Time-resolved FRET reads energy transfer from a long-lived donor to a nearby acceptor.

For a further test, the target named is T2, FXR (Homo sapiens, UniProt Q96RI1).
T2 construct: expressed in transfected cells
T2 sequence (Q96RI1 1-472 isoform Q96RI1-2): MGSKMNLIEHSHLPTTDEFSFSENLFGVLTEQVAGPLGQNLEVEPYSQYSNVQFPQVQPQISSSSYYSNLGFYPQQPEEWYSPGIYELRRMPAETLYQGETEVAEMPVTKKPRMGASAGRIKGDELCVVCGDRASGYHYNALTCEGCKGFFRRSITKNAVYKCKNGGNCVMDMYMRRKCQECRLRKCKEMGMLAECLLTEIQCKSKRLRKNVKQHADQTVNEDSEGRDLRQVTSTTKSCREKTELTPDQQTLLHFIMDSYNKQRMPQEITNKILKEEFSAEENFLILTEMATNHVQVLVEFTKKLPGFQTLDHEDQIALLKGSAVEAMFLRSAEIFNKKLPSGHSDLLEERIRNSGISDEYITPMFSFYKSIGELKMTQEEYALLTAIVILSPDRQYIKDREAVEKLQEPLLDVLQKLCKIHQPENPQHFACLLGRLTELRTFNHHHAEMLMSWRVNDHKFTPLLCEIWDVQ
Briefly: FXR-mediated transactivation, luciferase reporter in stable HEK293FXR reporter cell line. It is filed as cell-based. The conditions noted are these: HEK293FXR reporter cells, 16 hours. An excerpt: A compound according to the invention (experiments shown were done with MOLSTRUCTURE LN 0000006734; see Table 1 for structural formula) can mediate transactivation of FXR-mediated transcription in a HEK293 reporter cell line. […] The full length human FXR (accession U68233) and the full length human RXRα (accession P19793) were cloned into the […]30 applying the manufacturer protocols for the GatewayTM system (Invitrogen). The FXR response elements were cloned (upper case). [NT] ID NO. 5) was obtained from the human IBAB-P promoter (Grober et al 1999, JBC 274, pp. 29749-29754). A stable clone was selected and seeded at a density of 5×10^4 cells per well in 48 well plates. […] Variations of duplicate measurements are within 20%.
(In a reporter assay the amount or activity of a reporter protein is the signal.)

Setting [1] is: average of multiple experiments, read-out: EC50 AVG.

Where two headings read alike, the source gives them in different places.

With `CC(C)c1onc(-c2c(Cl)cccc2Cl)c1COc1ccc(CCC(=O)O)cc1` [LN0000006765], on human FXR alpha (NR1H4) (setting [1]), the EC50 came out at 0.43 µM. The “EFFIC AVG (average efficacy, % activity relative to CDCA control agonist)” value on human FXR alpha (NR1H4) was 115%.
With `CC(C)c1onc(-c2c(Cl)cccc2Cl)c1COc1ccc(Oc2ccc(C(=O)O)cc2)cc1` [formula III], on human FXR alpha (NR1H4), the “agonist of the NR1H4 human nuclear receptor” value is given as “active as agonist”.
For the compound `COC(=O)CCc1ccc(OCc2c(-c3c(Cl)cccc3Cl)noc2C(C)C)cc1` [LN0000006764], the EC50 on human FXR alpha (NR1H4) (setting [1]) is 0.72 µM. In addition, the “EFFIC AVG (average efficacy, % activity relative to CDCA control agonist)” value on human FXR alpha (NR1H4) was 108%.
As to `CC(C)c1onc(-c2c(Cl)cccc2Cl)c1COc1ccc(OCC(=O)O)cc1` [LN0000006767], the EC50 at human FXR alpha (NR1H4) (setting [1]) was 0.23 µM. Further, the “EFFIC AVG (average efficacy, % activity relative to CDCA control agonist)” value on human FXR alpha (NR1H4) worked out at 117%.
On to `CC(C)c1onc(-c2c(Cl)cccc2Cl)c1COc1ccc(/C=C/C(=O)O)c(Cl)c1` [formula V], for which the “agonist of the NR1H4 human nuclear receptor” value at human FXR alpha (NR1H4) was “active as agonist”.
Consider `CC(C)c1onc(-c2c(Cl)cccc2Cl)c1COc1ccc(/C=C/C(=O)O)c(Cl)c1` [LN0000006772], for which the EC50 at human FXR alpha (NR1H4) (setting [1]) stood at 0.05 µM. Also, the “EFFIC AVG (average efficacy, % activity relative to CDCA control agonist)” value at human FXR alpha (NR1H4) came to 100%.
For the compound `CC(C)c1onc(-c2c(Cl)cccc2Cl)c1COc1ccc(OCC(=O)O)cc1` [formula (II)], the EC50 on human FXR alpha (NR1H4) (read-out: EC50 at FXR (half-maximal effective concentration)) stood at 0.23 µM.
On to `CC(C)c1onc(-c2c(Cl)cccc2Cl)c1COc1ccc(CCC(=O)O)cc1` [formula IV], for which the “agonist of the NR1H4 human nuclear receptor” value at human FXR alpha (NR1H4) was “active as agonist”.
Take `CC(C)c1onc(-c2c(Cl)cccc2Cl)c1COc1ccc(Oc2ccc(C(=O)O)cc2)cc1` [LN0000006734]: the Luciferase reporter activity on FXR (0.08 μM) amounted to 2153.0; at FXR (0.4 μM) it was 2991.5; at FXR (1 μM) it was 5360.5; at FXR (2 μM), 6330.5; at FXR (10 μM), 8523.5; at FXR (50 μM), 13309.5. Further, the values for the EC50 at FXR (read-out: EC50 of dose-dependent transactivation of the reporter gene luciferase by FXR) and at human FXR alpha (NR1H4) (setting [1]) were around 1 µM and 0.6 µM, respectively. The “EFFIC AVG (average efficacy, % activity relative to CDCA control agonist)” value at human FXR alpha (NR1H4) is recorded as 85%.
For `CC(C)c1onc(-c2c(Cl)cccc2Cl)c1COc1ccc2cc(C(=O)O)ccc2c1` [LN0000000169], the Luciferase reporter activity at FXR (0.08 μM) was found to be 1630.0; at FXR (0.4 μM), 2754.0; at FXR (1 μM) it was 4600.0; at FXR (2 μM), 5775.7; on FXR (10 μM), 6829.3; on FXR (50 μM), 13375.7. Besides, the EC50 on human FXR alpha (NR1H4) (setting [1]) is 2.6 µM. For the same compound, at human FXR alpha (NR1H4), the “EFFIC AVG (average efficacy, % activity relative to CDCA control agonist)” value is reported as 134%.

These data come from US7034046B2, “NR1H4 nuclear receptor binding compounds” (Phenex Pharmaceuticals AG, priority 2001, dated 2006).
